Values after ≈ are worked out from the molar mass of the structure shown. Active and inactive are the calls of the source. The calls are words filed in the database; no cut-off is given here.

The first assay is filed under the species Homo sapiens. Briefly: Inhibition of human DNA topoisomerase 2 at 200 uM.
Settings: not given
The term inhibition denotes the drop in the measured response relative to a control, in per cent. As to `CCOc1c2c(c(-c3cc(OC)c(O)c(OC)c3)c3cc4c(cc13)OCO4)C(=O)OC2`, the inhibition entry was “inactive”.
On to `COc1cc(-c2c3c(c(O)c4cc5c(cc24)OCO5)COC3=O)cc(OC)c1O`, for which the inhibition result was “inactive”.
`CCOc1c2c(c(-c3cc(OC)c(OC)c(OC)c3)c3cc4c(cc13)OCO4)C(=O)OC2` [DEHYDROPODOPHYLLOTOXIN ETHYL ETHER]: the inhibition entry was “inactive”.
As to `CCCOc1c2c(c(-c3cc(OC)c(OC)c(OC)c3)c3cc4c(cc13)OCO4)C(=O)OC2` [DEHYDROPODOPHYLLOTOXIN PROPYL ETHER], the inhibition result is “inactive”.
Still for that read-out and setting: with `COc1cc(-c2c3c(c(O)c4cc5c(cc24)OCO5)COC3=O)cc(OC)c1OC` [DEHYDROPODOPHYLLOTOXIN] the entry was “inactive”; with `COc1cc([C@@H]2c3cc4c(cc3[C@@H](O[C@@H]3O[C@@H]5CO[C@@H](C)O[C@H]5[C@H](O)[C@H]3O)[C@H]3COC(=O)[C@H]23)OCO4)cc(OC)c1O` [ETOPOSIDE], 80%.

For a further assay, the system named is P388. Briefly: In vivo cytotoxicity against mouse P388 cells at 50 mg/kg/day relative to control. Format: functional.
Settings: not given
As a reminder, the T/C is the result in the treated group divided by that in the control group, in per cent. For `COc1cc2c(O)c3c(c(-c4ccc5c(c4)OCO5)c2cc1OC)C(=O)OC3` [DIPHYLLIN], the T/C was determined as 150%.
Regarding `COc1cc2c(OC)c3c(c(-c4ccc5c(c4)OCO5)c2cc1OC)C(=O)OC3` [JUSTICIDIN A], the T/C is 150%.

A further assay is filed under the species Homo sapiens. The assay can be described thus: Inhibition of human DNA topoisomerase 2 at 400 uM.
Settings: not given
With `CCO[C@@H]1c2cc3c(cc2[C@@H](c2cc(OC)c(O)c(OC)c2)[C@H]2C(=O)OC[C@@H]21)OCO3`, the inhibition worked out at 25%.
Still for that read-out and setting: then `COc1cc([C@@H]2c3cc4c(cc3[C@@H](O)[C@H]3COC(=O)[C@H]23)OCO4)cc(OC)c1O` [4'-DEMETHYLEPIPODOPHYLLOTOXIN], with 50%; and `COc1cc([C@@H]2c3cc4c(cc3[C@@H](O[C@@H]3O[C@@H]5CO[C@@H](C)O[C@H]5[C@H](O)[C@H]3O)[C@H]3COC(=O)[C@H]23)OCO4)cc(OC)c1O` [ETOPOSIDE], with 85%.

Another assay deals with KB. Briefly: Cytotoxicity against human KB cells. The assay is classed as functional. To be noted: read-out: ED50 (the source's name).
As for `CCO[C@@H]1c2cc3c(cc2[C@@H](c2cc(OC)c(O)c(OC)c2)[C@H]2C(=O)OC[C@@H]21)OCO3`, the EC50 is 1.1 µg/mL (≈ 2.57 µM).
`CCOc1c2c(c(-c3cc(OC)c(O)c(OC)c3)c3cc4c(cc13)OCO4)C(=O)OC2`: the EC50 stood at 4 µg/mL (≈ 9.42 µM).
`COc1cc(-c2c3c(c(O)c4cc5c(cc24)OCO5)COC3=O)cc(OC)c1O`: the EC50 was 2.2 µg/mL (≈ 5.55 µM).
Same read-out and setting: then `COc1cc([C@@H]2c3cc4c(cc3[C@@H](O)[C@H]3COC(=O)[C@H]23)OCO4)cc(OC)c1O` [4'-DEMETHYLEPIPODOPHYLLOTOXIN], with 0.1 µg/mL (≈ 0.25 µM); and `CCOc1c2c(c(-c3cc(OC)c(OC)c(OC)c3)c3cc4c(cc13)OCO4)C(=O)OC2` [DEHYDROPODOPHYLLOTOXIN ETHYL ETHER], with 4 µg/mL (≈ 9.12 µM).
Same read-out and setting: with `CCCOc1c2c(c(-c3cc(OC)c(OC)c(OC)c3)c3cc4c(cc13)OCO4)C(=O)OC2` [DEHYDROPODOPHYLLOTOXIN PROPYL ETHER] the figure was 4 µg/mL (≈ 8.84 µM).
On the same count and under the same terms, with `COc1cc(-c2c3c(c(O)c4cc5c(cc24)OCO5)COC3=O)cc(OC)c1OC` [DEHYDROPODOPHYLLOTOXIN] the figure was 4 µg/mL (≈ 9.75 µM).
In the case of `COc1cc2c(O)c3c(c(-c4ccc5c(c4)OCO5)c2cc1OC)C(=O)OC3` [DIPHYLLIN], the EC50 was below 1 µg/mL.
Same read-out and setting: with `COc1cc([C@@H]2c3cc4c(cc3[C@@H](O[C@@H]3O[C@@H]5CO[C@@H](C)O[C@H]5[C@H](O)[C@H]3O)[C@H]3COC(=O)[C@H]23)OCO4)cc(OC)c1O` [ETOPOSIDE] the figure was 0.1 µg/mL (≈ 0.17 µM).
As for `COc1cc2c(OC)c3c(c(-c4ccc5c(c4)OCO5)c2cc1OC)C(=O)OC3` [JUSTICIDIN A], the EC50 was below 1 µg/mL.
